Drawing on the Bradley open melting point set (2014), this text covers melting point for 88 compounds.

Each structure is given as a SMILES string. Several values for one entry are separate records, joined by “and”; a condition that tells them apart may be missing. Equal values may be shown once.

One may read the melting point as the temperature, or range, at which the solid turns liquid. With `c1ccc(-c2ccc(-c3ccccc3)cc2)cc1` [p-terphenyl], the melting point came to 214 °C.

Compound `CCCCCCCCCCNCCCCCCCCCC` [N-Decyldecan-1-amine] yielded a melting point of 43 °C. Next, `C=CCCCCCCCCCC` [1-dodecene]: -35 °C. With `CCOc1ccc(C#N)cc1` [4-ethoxybenzonitrile], the melting point turned out to be 62 °C. Turning to `N[C@@H](Cc1ccc(F)c(F)c1)C(=O)O` (racemic) [3,4-difluoro-dl-phenylalanine], the melting point is 233 °C. `Cc1ccnc(NS(=O)(=O)c2ccc(N)cc2)n1` [Sulfamerazine]: the melting point came to 236 °C. The same measure for `CN1CCC(=C2c3ccccc3C=Cc3ccccc32)CC1` [cyproheptadine]: 113 °C; for `CC[C@H]1OC(=O)[C@H](C)[C@@H](O[C@H]2C[C@@](C)(OC)[C@@H](O)[C@H](C)O2)[C@H](C)[C@@H](O[C@@H]2O[C@H](C)C[C@H](N(C)C)[C@H]2O)[C@](C)(O)C[C@@H](C)C(=O)[C@H](C)[C@@H](O)[C@]1(C)O` [erythromycin]: 191 °C; for `Cc1ccc(CO)cc1` [4-methylbenzyl_alcohol]: 61 °C. Next, `N#CCC(=O)N1CCCC1` [1-(cyanoacetyl)pyrrolidine]: 73 °C; `COc1ccc2ncccc2c1` [6-methoxyquinoline]: 19 °C; `C#CC1(O)CCC2C3CCc4cc(O)ccc4C3CCC21C` (stereo not drawn) [17a-Ethynylestradiol]: 141 °C. Next, `C1CCC2OCCOCCOC3CCCCC3OCCOCCOC2C1` (stereo not drawn) [dicyclohexano-18-crown-6]: 50 °C. Consider `O=C1CCC(c2ccccc2)CC1` [4-phenylcyclohexanone], for which the melting point was determined as 80 °C. `CC(=O)c1sccc1N` [2-acetyl-3-aminothiophene] showed a melting point of 86 °C. For `CCCCc1ccc(O)cc1` [4-n-butylphenol], the melting point is 22 °C. Next, `O[C@@H]1OC[C@@H](OCc2ccccc2)[C@@H](OCc2ccccc2)[C@@H]1OCc1ccccc1` [2,3,4-tri-o-benzyl-beta-D-arabinopyranose]: 69 °C; `CCCCCCCCCC#N` [nonyl_cyanide]: -15 °C; `O=C(O)c1ccccc1Nc1cccc(C(F)(F)F)c1` [flufenamic acid]: 134 °C.

Compound `c1ccc2nc3ccccc3cc2c1` [acridine] displayed a melting point of 109 °C. Next, `NC(=O)c1ccccc1Br` [2-bromobenzamide]: 161 °C.

Take `Cn1c(=O)c2nc[nH]c2n(C)c1=O` [Theophylline]: the melting point came to 274 °C. With `O=C(O)c1ccc(-c2ccccc2)cc1` [p-phenylbenzoic_acid], the melting point was determined as 227 °C. The same measure for `Nc1ccc(F)c(Cl)c1` [3-chloro-4-fluoroaniline]: 46 °C; for `NNS(=O)(=O)c1ccccc1` [benzenesulfonyl hydrazide]: 103 °C.

In turn, `CCOC(=O)c1ccccc1N` [ethyl anthranilate] displayed a melting point of 15 °C.

`CCSc1nnn[nH]1` [5-(ethylthio)-1h-tetrazole] yielded a melting point of 76 °C. Take `ClCCCl` [1,2-dichloroethane]: the melting point is -35 °C.

As for `COc1cc(N)c(Cl)cc1C(=O)NC1CCN(Cc2ccccc2)CC1` [clebopride], the melting point was determined as 194 °C.

With `CCCNCCC` [N-Propylpropan-1-amine], the melting point was -40 °C. Compound `NC(=S)c1ccccn1` [pyridine-2-thiocarboxamide] came in with a melting point of 123 °C. For the compound `O=[N+]([O-])c1cc(C=Nc2ccccc2)ccc1C=Nc1ccccc1` [N,N'-[(2-nitrobenzene-1,4-diyl)di(E)methylylidene]dianiline], the melting point stood at 134 °C. The same measure for `NS(=O)(=O)c1cc2c(cc1Cl)NCNS2(=O)=O` [hydrochlorothiazide]: 269 °C; for `CCCCCCCc1ccc(-c2ccc(C#N)cc2)cc1` [4-cyano-4'-n-heptylbiphenyl]: 31 °C. The same measure for `Cc1ccc(B(O)O)cc1C` [3,4-dimethylbenzeneboronic acid]: 220 °C; for `COC(=O)c1ccc(OC)c(C#N)c1` [methyl 3-cyano-4-methoxybenzoate]: 122 °C. The same measure for `Cc1ncc(CO)c(C=O)c1O` [Pyridoxal]: 172 °C; for `CC12CCC(/C(=C\Nc3ccccc3C(=O)O)C1=O)C2(C)C` (stereo not drawn): 112 °C. `Nc1cc(C(F)(F)F)ccc1[N+](=O)[O-]` [2-nitro-5-(trifluoromethyl)aniline] gave a melting point of 100 °C. The compound `Cc1cc(O)ccc1Br` [4-Brom-3-methylphenol] showed a melting point of 64 °C. Take `CC(=O)C(=O)O` [2-Oxopropanoic acid]: the melting point worked out at 12 °C. The same measure for `O=C(O)Cc1ccc(Br)cc1` [4-bromophenylacetic acid]: 117 °C. Next, `Fc1c(F)c(F)c(-c2c(F)c(F)c(F)c(F)c2F)c(F)c1F` [decafluorobiphenyl]: 68 °C.

`O=Cc1cccc(I)c1` [m-iodobenzaldehyde] displayed a melting point of 58 °C. The compound `O=C(O)CCCCCCC(=O)O` [suberic_acid] came in with a melting point of 144 °C. The same measure for `CCCCC1=NC2(CCCC2)C(=O)N1Cc1ccc(-c2ccccc2-c2nnn[nH]2)cc1` [Irbesartan]: 180 °C; for `NCCCCCO` [5-amino-1-pentanol]: 36 °C.

Take `ClC(Cl)(Cl)c1ccccc1` [benzotrichloride]: the melting point was -4 °C. Next, `c1ccsc1` [Thiophene]: -38 °C; `ClCc1c2ccccc2cc2ccccc12` [9-(chloromethyl)anthracene]: 140 °C; `O=C1CNC(=O)N1` [hydantoin]: 222 °C.

In turn, `Cc1c[nH]c(=O)[nH]c1=O` [thymine] yielded a melting point of 316 °C. `ON=Cc1ccncc1` [pyridine-4-carboxaldoxime] showed a melting point of 132 °C. Compound `ClCc1ccc(Cl)cc1Cl` [2,4-dichlorobenzyl chloride] yielded a melting point of -3 °C. `Cc1ccc(N)c(C)c1` [2,4-dimethylaniline] yielded a melting point of -15 °C.

On to `CC(=O)c1ccc(O)c(C(F)(F)F)c1` [4'-hydroxy-3'-(trifluoromethyl)acetophenone], for which the melting point turned out to be 176 °C. `COc1cccc2c1C(=O)c1c(O)c3c(c(O)c1C2=O)C[C@@](O)(C(=O)CO)C[C@@H]3O[C@H]1C[C@H](N)[C@H](O)[C@H](C)O1` [Doxorubicin] returned a melting point of 204 °C. `O=C1CCC(=O)CC1` [1,4-cyclohexanedione] had a melting point of 78 °C. Next, `CS(C)=O` [Dimethyl sulfoxide]: 18.4 °C and 18.5 °C.

`O/N=C(/C=C/c1ccccc1)c1ccccc1` [2-Propen-1-one, 1,3-diphenyl-, oxime, (E,Z)-] had a melting point of 116 °C. Take `CC(C)NCC(O)COc1cccc2ccccc12` (stereo not drawn) [Propranolol]: the melting point was 164 °C.

The compound `O=C(O)CC(CC(=O)O)C(=O)O` [tricarballylic acid] had a melting point of 160 °C. Next, `CCOC(=O)C(NC=O)C(=O)OCC` [diethyl formamidomalonate]: 53 °C; `Cc1cc(O)c(C)c(=O)o1` [3,6-dimethyl-4-hydroxy-2-pyrone]: 210 °C; `O=C1OC2(c3ccc(O)cc3Oc3cc(O)ccc32)c2ccccc21` [fluorescein]: 320 °C. In turn, `CC1(C)[C@@H]2CC[C@]13CS(=O)(=O)N[C@@H]3C2` [(1S,2R)-10,2-camphorsultam] returned a melting point of 183 °C. The same measure for `Nc1cccnc1[N+](=O)[O-]` [3-amino-2-nitropyridine]: 192 °C; for `Clc1nc2ccccc2s1` [2-chlorobenzothiazole]: 32 °C. Next, `COc1ccc2c3c1O[C@H]1[C@@H](O)C=C[C@H]4[C@@H](C2)N(C)CC[C@@]341` [codeine]: 158 °C; `ON(/C=C/c1ccccc1)c1ccccc1` [N-hydroxy-N-[(E)-2-phenylethenyl]aniline]: 120 °C; `CC(C)Cc1ccc(C(C)C(=O)O)cc1` (stereo not drawn) [Ibuprofen]: 76 °C. Next, `Nc1ccc(Br)cc1Br` [2,4-dibromoaniline]: 80 °C.

With `O=C(N[C@@H](Cc1c[nH]c2ccccc12)C(=O)O)OCc1ccccc1` [N(alpha)-benzyloxycarbonyl-l-tryptophan], the melting point was 124 °C. The same measure for `CC(C)NCC(O)c1cc(O)cc(O)c1` (stereo not drawn) [metaproterenol]: 100 °C; for `CCOc1ccc(NC(C)=O)cc1` [4'-ethoxyacetanilide]: 135 °C; for `Cc1ccc(N)cc1Br` [3-bromo-4-methylaniline]: 27 °C. Consider `C/C=C/c1ccc(OC)cc1` [trans-anethole], for which the melting point turned out to be 22 °C. Next, `ON=C(Cl)c1ccc(Cl)cc1` [4-chloro-N-hydroxybenzenecarboximidoyl chloride]: 278 °C. Compound `CCOC(=O)C(C)=O` [ethyl pyruvate] yielded a melting point of -58 °C. `O=Cc1cc(Cl)cc(Cl)c1` [3,5-Dichlorobenzaldehyde]: the melting point was found to be 68 °C. `O=c1[nH]cc(C(F)(F)F)c(=O)[nH]1` [5-(trifluoromethyl)uracil]: the melting point came to 253 °C. Next, `CCCCC(CC)CN` (stereo not drawn) [2-ethylhexylamine]: -76 °C; `c1ccc(Oc2ccccc2)cc1` [diphenyl ether]: 28 °C; `Cc1ccccn1` [2-picoline]: -70 °C. Consider `CCCCCCCCCCCCCCCCCCCCCCCCCCCCC` [Nonacosane], for which the melting point stood at 66 °C. `O=C(N[C@@H](CO)C(=O)O)OCc1ccccc1` [N-benzyloxycarbonyl-l-serine]: the melting point turned out to be 119 °C. The same measure for `CC(N)(CO)CO` [2-Amino-2-methylpropane-1,3-diol]: 111 °C. The same measure for `O=[N+]([O-])c1cc[n+]([O-])c(Br)c1` [2-bromo-4-nitropyridine n-oxide]: 145 °C.
